Consider six compounds from ChEMBL document CHEMBL1201862, “PubChem BioAssay data set” (2004).

Test systems include ACHN; CAKI-1; EKVX; HCC 2998; HCT-15; HT-29; KM-20L2; KM12; LOX IMVI; M14; NCI-H522; OVCAR-4; OVCAR-8; RPMI-8226; SF-268; SK-MEL-5; SK-OV-3; SW-620; UACC-62; XF498.
Holding throughout (assay): DTP human tumour cell line panel, 48 h

The structures appear in SMILES notation.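 Cultured in 96-well plates, cells were exposed to test compound for 48 hours across five concentrations. GI50: concentration for 50% inhibition of growth.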 Active and inactive are the calls of the source. No stated cut-off is given here; in the data, active = GI50 up to about 1.1 µM and inactive = higher.

`N=C(N)SCc1cccc2c(=O)cc(-c3ccccc3)oc12`: the GI50 in the assay on ACHN is 3.53 µM (inactive); in the assay on CAKI-1, 3.94 µM (inactive); in the assay with EKVX it was 8.75 µM (inactive); with HCC 2998, 12 µM (inactive); in the assay on HCT-15, 10.5 µM; with HT-29 it was 4.84 µM (inactive). Also, the GI50 in the assay with KM-20L2 is 6.24 µM (inactive); with KM12 it was 9.29 µM (inactive); with LOX IMVI, 12.2 µM (inactive); in the assay on M14, 5.28 µM (inactive); with NCI-H522 it was 3.87 µM (inactive); with OVCAR-4, 7.24 µM (inactive). For the same compound, the GI50 is 4.5 µM (inactive) in the assay on OVCAR-8; 2.54 µM (inactive) with RPMI-8226; 12.4 µM (inactive) in the assay with SF-268; 11.1 µM (inactive) with SK-MEL-5; 12.8 µM (inactive) with SK-OV-3; 4.37 µM (inactive) in the assay with SW-620. Moreover, the GI50 in the assay with UACC-62 is 12.7 µM (inactive); in the assay on XF498 it was 5.87 µM (inactive).

On to `CC1CC(c2cccc3c2OCO3)=Nc2ccccc2S1` (stereo not given), for which the GI50 is > 100 µM (inactive) in the assay with ACHN; > 100 µM (inactive) in the assay on CAKI-1; > 100 µM (inactive) in the assay with EKVX; > 100 µM (inactive) in the assay with HCC 2998; more than 100 µM in the assay with HCT-15; > 100 µM (inactive) in the assay with HT-29. Further, the GI50 with KM-20L2, with KM12, with LOX IMVI, in the assay on M14, in the assay on NCI-H522 and with OVCAR-4 was > 100 µM (inactive) each time. Also, the GI50 with OVCAR-8, with RPMI-8226, with SF-268, in the assay on SK-MEL-5, in the assay on SK-OV-3 and with SW-620 was > 100 µM (inactive) each time. Further, the GI50 in the assay with UACC-62 and with XF498 was > 100 µM (inactive) throughout.

With `O=C(CC(CC(=O)Oc1c(Br)cc(Br)cc1C(=O)O)C(=O)Oc1c(Br)cc(Br)cc1C(=O)O)Oc1c(Br)cc(Br)cc1C(=O)O`, the GI50 with ACHN was > 100 µM (inactive); in the assay with CAKI-1, 72.6 µM (inactive); with EKVX, 44.9 µM (inactive); in the assay on HCC 2998 it was 42.3 µM (inactive); in the assay with HCT-15 it was 43.8 µM; in the assay on HT-29, 49.2 µM (inactive). In addition, the GI50 was 56.6 µM (inactive) in the assay on KM-20L2; 50.7 µM (inactive) with KM12; 30.8 µM (inactive) in the assay on LOX IMVI; 91.6 µM (inactive) in the assay with M14; 22.2 µM (inactive) with NCI-H522; 50.2 µM (inactive) in the assay on OVCAR-4. Moreover, the GI50 with OVCAR-8 is 19.3 µM (inactive); with RPMI-8226 it was 33.7 µM (inactive); with SF-268 it was 6.12 µM (inactive); with SK-MEL-5, > 100 µM (inactive); with SK-OV-3, 54.7 µM (inactive); in the assay on SW-620, 69.5 µM (inactive). Besides, the GI50 with UACC-62 was 49.9 µM (inactive); in the assay on XF498, 0.504 µM (active).

For the compound `C=C(CN(C)C)C(=O)c1ccc(Oc2ccccc2)cc1`, the GI50 was 1.8 µM (inactive) in the assay on ACHN; 2.54 µM (inactive) in the assay with CAKI-1; 16.9 µM (inactive) with EKVX; 17.5 µM (inactive) with HCC 2998; 3.68 µM in the assay on HCT-15; 7.82 µM (inactive) in the assay with HT-29. Further, the GI50 with KM-20L2 was 12.2 µM (inactive); with KM12, 12.8 µM (inactive); in the assay on LOX IMVI, 5.57 µM (inactive); in the assay on M14, 1.76 µM (inactive); in the assay on NCI-H522 it was 1.55 µM (inactive); in the assay on OVCAR-4, 6.19 µM (inactive). In addition, the GI50 in the assay with OVCAR-8 is 3.28 µM (inactive); with RPMI-8226 it was 0.962 µM (active); in the assay on SF-268 it was 14 µM (inactive); with SK-MEL-5 it was 7.21 µM (inactive); with SK-OV-3, 21.3 µM (inactive); with SW-620, 1.31 µM (inactive). Also, the figures for the GI50 in the assay with UACC-62 and in the assay on XF498 were 4.39 µM (inactive) and 14.8 µM (inactive), respectively.

`O=C(Cc1ccccc1)NN1C(=O)C(Cl)C1c1ccccc1Cl` (stereo not given): the GI50 is > 100 µM (inactive) in the assay with ACHN; > 60.3 µM (inactive) in the assay with CAKI-1; > 100 µM (inactive) in the assay on EKVX; > 100 µM (inactive) with HCC 2998; more than 92.9 µM in the assay on HCT-15; > 94.2 µM (inactive) with HT-29. The GI50 in the assay on KM-20L2 is 98.6 µM (inactive); in the assay with KM12, > 79.3 µM (inactive); in the assay with LOX IMVI, 24.3 µM (inactive); with M14, > 100 µM (inactive); in the assay on NCI-H522, 13.2 µM (inactive); in the assay with OVCAR-4 it was > 100 µM (inactive). Also, the GI50 in the assay on OVCAR-8 was > 74 µM (inactive); in the assay on RPMI-8226, 19.5 µM (inactive); in the assay with SF-268 it was > 70.1 µM (inactive); in the assay with SK-MEL-5 it was > 72.6 µM (inactive); in the assay with SK-OV-3, > 100 µM (inactive); in the assay on SW-620 it was 34.4 µM (inactive). Moreover, the values for the GI50 with UACC-62 and with XF498 were 68.5 µM (inactive) and > 75 µM (inactive), respectively.

`Nc1ncnc2c1nnn2C1C=C(CO)C(O)C1O` (stereo not given): the GI50 in the assay on ACHN was > 53.5 µM (inactive); in the assay with CAKI-1, 74 µM (inactive); with EKVX it was > 100 µM (inactive); in the assay on HCC 2998, 22.5 µM (inactive); in the assay on HCT-15, 26.6 µM; in the assay on HT-29, 35.3 µM (inactive). Also, the GI50 in the assay on KM-20L2 is 50.5 µM (inactive); in the assay with KM12, 36.6 µM (inactive); in the assay on LOX IMVI, 38.6 µM (inactive); in the assay on M14, > 52.2 µM (inactive); in the assay on NCI-H522, > 100 µM (inactive); with OVCAR-4, 32.4 µM (inactive). Also, the GI50 in the assay with OVCAR-8 is 39.4 µM (inactive); in the assay with RPMI-8226 it was 20.3 µM (inactive); in the assay on SF-268, 42.7 µM (inactive); in the assay on SK-MEL-5, > 100 µM (inactive); in the assay with SK-OV-3 it was > 100 µM (inactive); in the assay with SW-620, 29.4 µM (inactive). In addition, the GI50 in the assay on UACC-62 and in the assay on XF498 was > 100 µM (inactive) throughout.

As a reminder, the GI50 is the concentration that inhibits growth by half.
